Laboratory results: patent US20240217961A1 (MONOPTEROS THERAPEUTICS, INC., priority 2021, published 2024)
Entries after “also recorded” stand apart in the source; their conditions may differ.

Columns and labels:
[1] = Excipient compatibility study of milled API in binary mixtures (40° C./75% R.H. open, 60° C. closed; HPLC, XRPD, appearance); type: physicochemical
Procedure: Samples were set up at each of these two conditions: 40° C./75% R.H. open, and 60° ° C., closed. Three sampling time points (initial, 2 weeks, and 4 weeks) are specified in Table 15.
The API was set up as a control at each time point and each condition. For the pure excipients, only one bulk sample was set up at each condition. They were analyzed at the initial time point and at other time points if degradation of the active substance was observed. For the 15 binary mixtures, triplicate samples were set up at each time point/condition. Two samples were analyzed for purity and XRPD test, and the third one was kept as a contingency sample. The appearance and XRPD of samples under each condition were recorded at each time point.
The binary mixture was set up in duplicate.
Excipient blank controls: Each excipient blank was weighed into a 40 mL clear glass vial as excipient blank control. The excipient blank was set up as a single sample.
API control: Approximate: 13.8 mg of API was weighed into a 40 mL clear glass vial. The API control was set up in duplicate.
All the samples for open condition storage were put into an uncapped clear glass vial. The mouth of vials were covered by aluminum foil with pinholes, to avoid cross-contamination, and then stored in the stability chamber. The samples were stored at each condition 40° C./75% R.H. open and 60° C. close conditions and monitored for physical appearance, XRPD, impurities/related substances and assay at each time point, respectively.
All samples at 40° C./75% R.H., and 60° C. for 2 weeks and 4 weeks, were pulled out and cooled to room temperature for physical appearance, total related substances (TRS) and assay analysis. The diluent was accurately added into 40 ml vials and then the solution was sonicated for 10 minutes to facilitate dissolution of the API. Then 1 mL solution was taken out and centrifuged at 14000 rpm for 5 min for twice to separate some undissolved excipients, and then the concentration of supernatants were analyzed by HPLC instrument. The recovery and TRS results of excipient compatibility study at 40° C./75% R.H., and 60° C. are shown in Table 9, and the results of the complete impurity content and XRPD result are listed in Table 7.

[2] = Hygroscopicity: storage at 92.5% RH for 1 week, weight loss by TGA; type: physicochemical; conditions: for 92.5% RH for 1W (by TGA,%): weight loss by TGA at 145° C. after 92.5% RH for 1 week; for 92.5% RH for 1W, observation: after 92.5% RH for 1 week, Deliqu means deliquescent
[3] = Dynamic Vapor Sorption (DVS) at 25° C.; conditions: for DVS Result 95% RH: 0(120 min)-95% RH(180 min), dm/dt 0.002%
[4] = Solubility at 25° C., 24 h, in SGF, FaSSIF, FeSSIF and water; type: physicochemical
[5] = 70% RH, 25° C., method 50-90-0-50% RH, dm/dt = 0.01%

CN1CCCC(CN2c3ccccc3Sc3ccccc32)C1.O=C(O)CCC(=O)O (stereo not shown) [API control]
Assay (%) ([1]; 40° C./75% RH open, 2 weeks): 100.82% | TRS (%) (total related substances) ([1]; 40° C./75% RH open, 2 weeks): 0.18% | XRPD ([1]; 40° C./75% RH open, 2 weeks): No change | Assay (%) ([1]; 40° C./75% RH open, 4 weeks): 100.08% | TRS (%) (total related substances) ([1]; 40° C./75% RH open, 4 weeks): 0.12% | XRPD ([1]; 40° C./75% RH open, 4 weeks): No change | Assay (%) ([1]; 60° C. close, 2 weeks): 99.70% | TRS (%) (total related substances) ([1]; 60° C. close, 2 weeks): 0.18% | XRPD ([1]; 60° C. close, 2 weeks): No change | Assay (%) ([1]; 60° C. close, 4 weeks): 102.38% | TRS (%) (total related substances) ([1]; 60° C. close, 4 weeks): 0.13% | XRPD ([1]; 60° C. close, 4 weeks): No change | Assay (%) ([1]; Initial 0 day): 100.00% | TRS (%) (total related substances) ([1]; Initial 0 day): 0.14%

CN1CCCC(CN2c3ccccc3Sc3ccccc32)C1.O=C(O)CCCCC(=O)O (stereo not shown) [Adipate]
92.5% RH for 1W (by TGA,%) [2]: 0.6% at

N[C@@H](CCC(=O)O)C(=O)O [Glutamate]
92.5% RH for 1W (by TGA,%) [2]: 2.4% at | DVS Result 95% RH ([3]; 25° C.): 16.84%

CN1CCCC(CN2c3ccccc3Sc3ccccc32)C1.Cl (stereo not shown) [Hydrochloride, reference compound]
behaviour under long term humidity conditions ([2]; 25° C., 92.5% RH for one week): deliquescent | 92.5% RH for 1W, observation [2]: Deliqu | moisture absorbed by DVS ([3]; 25° C. and 95% RH for about 5 hours): 16.9 wt % | moisture absorbed at 80% RH ([3]; 80% RH at 25° C.): 0.85%

CN1CCCC(CN2c3ccccc3Sc3ccccc32)C1.O=C(O)CC(O)C(=O)O (stereo not shown) [Malate]
92.5% RH for 1W, observation [2]: Deliqu

CN1CCCC(CN2c3ccccc3Sc3ccccc32)C1.O=P(O)(O)O (stereo not shown) [Phosphate]
92.5% RH for 1W (by TGA,%) [2]: 1.3% at | DVS Result 95% RH ([3]; 25° C.): 5.18%

O=S(=O)(O)O [Sulfate]
92.5% RH for 1W, observation [2]: Discoloration,; also recorded: Agglomerate | 92.5% RH for 1W (by TGA,%) [2]: 2.3% at 145 °C

CN1CCCC(CN2c3ccccc3Sc3ccccc32)C1.O=C(O)C(O)C(O)C(=O)O (stereo not shown) [Tartarate Pattern I]
92.5% RH for 1W, observation [2]: Deliqu

(S)-mepazine succinate salt
92.5% RH for 1W (by TGA,%) [2]: 0.4% at | DVS Result 95% RH ([3]; 25° C.): 1.87%

Fumarate
92.5% RH for 1W (by TGA,%) [2]: 0.3% at | Solubility 24 h ([4]; FaSSIF, pH 6.5): 9400 µg/mL | pH of solubility sample ([4]; FaSSIF, pH 6.5, 24 h): 3.63 | pH of solubility sample ([4]; FaSSIF, pH 6.5, 24 h, target concentration 2 mg/mL): 5.48 | Solubility 24 h ([4]; FaSSIF, pH 6.5, target concentration 2 mg/mL): > 2000 µg/mL | Solubility 24 h ([4]; FeSSIF, pH 5.0): 3400 µg/mL | pH of solubility sample ([4]; FeSSIF, pH 5.0, 24 h): 4.52 | pH of solubility sample ([4]; FeSSIF, pH 5.0, 24 h, target concentration 2 mg/mL): 4.89 | Solubility 24 h ([4]; FeSSIF, pH 5.0, target concentration 2 mg/mL): > 2000 µg/mL | Solubility 24 h ([4]; H2O): 3800 µg/mL | pH of solubility sample ([4]; H2O, 24 h): 3.49 | pH of solubility sample ([4]; H2O, 24 h, target concentration 2 mg/mL): 3.80 | Solubility 24 h ([4]; H2O, target concentration 2 mg/mL): > 2000 µg/mL | Solubility 24 h ([4]; SGF, pH 2.0): 7500 µg/mL | pH of solubility sample ([4]; SGF, pH 2.0, 24 h): 2.60 | pH of solubility sample ([4]; SGF, pH 2.0, 24 h, target concentration 2 mg/mL): 1.99 | Solubility 24 h ([4]; SGF, pH 2.0, target concentration 2 mg/mL): > 2000 µg/mL | DVS Result 95% RH ([3]; 25° C.): 1.29% | DVS Desorp (%) [3, 5]: 0.13% | DVS Sorption (%) [3, 5]: 0.13%
